Tests used:
blackgrass [1] = experiment: Test Example 4: herbicidal effect by soil treatment (Table 19, symbol J); type: in vivo, blackgrass (Alopecurus myosuroides); conditions: amount of applied herbicide 320 g/ha
Method in brief: (§1)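 Herbicidal effect was rated 3 weeks after treatment, using the scoring criteria of an earlier test. The compound, formulated as an emulsion and diluted in water to a set herbicide amount, had been sprayed uniformly on soil over freshly sown seeds. Growth took place in a greenhouse at 25° C. to 30° C.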

barnyard grass [2] = experiment: Test Example 3: herbicidal effect by foliage application, Wagner pot (Table 18, symbol H); type: in vivo, barnyard grass (Echinochloa crus-galli); conditions: 320 g/ha
Method in brief: (§2)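 Plants were sown in alluvial soil held under 0.1–0.5 cm standing water and grown 14 days in a greenhouse at 25–30 °C. An emulsifiable formulation, water-diluted to the set dose, was then sprayed onto the foliage, and effects were scored three weeks later using previously defined criteria.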

blackgrass [3] = experiment: Test Example 5: herbicidal effect by foliage application, plastic box (Table 20, symbol J); type: in vivo, blackgrass (Alopecurus myosuroides); conditions: amount of applied herbicide 320 g/ha; foliage application after 14-day growth; evaluated three weeks after application
Method in brief: (§3)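 Foliar spray test: emulsion formulation diluted in water to a set application rate, sprayed onto 14-day-old plants raised in diluvial soil at 25° C to 30° C under glass. Both herbicidal effect and crop effect rated visually three weeks later.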

windgrass [4] = experiment: Test Example 4: herbicidal effect by soil treatment (Table 19, symbol L); type: in vivo, windgrass (Apera spica-venti); conditions: amount of applied herbicide 320 g/ha
Method in brief: as §1

chickweed [5] = experiment: Test Example 4: herbicidal effect by soil treatment (Table 19, symbol P); type: in vivo, common chickweed (Stellaria media); conditions: amount of applied herbicide 320 g/ha
Method in brief: as §1

barnyard grass [6] = experiment: Test Example 4: herbicidal effect by soil treatment (Table 19, symbol H); type: in vivo, barnyard grass (Echinochloa crus-galli); conditions: amount of applied herbicide 320 g/ha
Method in brief: as §1

windgrass [7] = experiment: Test Example 5: herbicidal effect by foliage application, plastic box (Table 20, symbol L); type: in vivo, windgrass (Apera spica-venti); conditions: amount of applied herbicide 320 g/ha; foliage application after 14-day growth; evaluated three weeks after application
Method in brief: as §3

southern crabgrass [8] = experiment: Test Example 4: herbicidal effect by soil treatment (Table 19, symbol F); type: in vivo, southern crabgrass (Digitaria ciliaris); conditions: amount of applied herbicide 320 g/ha
Method in brief: as §1

southern crabgrass [9] = experiment: Test Example 5: herbicidal effect by foliage application, plastic box (Table 20, symbol F); type: in vivo, southern crabgrass (Digitaria ciliaris); conditions: amount of applied herbicide 320 g/ha; foliage application after 14-day growth; evaluated three weeks after application
Method in brief: as §3

velvetleaf [10] = experiment: Test Example 5: herbicidal effect by foliage application, plastic box (Table 20, symbol M); type: in vivo, velvetleaf (Abutilon theophrasti); conditions: amount of applied herbicide 320 g/ha; foliage application after 14-day growth; evaluated three weeks after application
Method in brief: as §3

late watergrass = experiment: Test Example 1: herbicidal activity, application before weed generation under submerged conditions (Table 16, symbol A); type: in vivo, late watergrass (Echinochloa oryzicola); conditions: amount of applied herbicide 320 g/ha
Method in brief: (§4)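 Emulsion formulation, water-diluted to set dose, was put onto the flooded surface (4 cm depth, alluvial soil) the same day weeds were sown and 2.5-leaf rice transplanted. After 3 weeks at 25-30 °C under glass, each species was rated 0 (≤5% kill) to 5 (≥90% kill).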

Italian ryegrass [11] = experiment: Test Example 5: herbicidal effect by foliage application, plastic box (Table 20, symbol K); type: in vivo, Italian ryegrass (Lolium multiflorum); conditions: amount of applied herbicide 320 g/ha; foliage application after 14-day growth; evaluated three weeks after application
Method in brief: as §3

persian speedwell [12] = experiment: Test Example 5: herbicidal effect by foliage application, plastic box (Table 20, symbol R); type: in vivo, Persian speedwell (Veronica persica); conditions: amount of applied herbicide 320 g/ha; foliage application after 14-day growth; evaluated three weeks after application
Method in brief: as §3

green foxtail [13] = experiment: Test Example 4: herbicidal effect by soil treatment (Table 19, symbol G); type: in vivo, green foxtail (Setaria viridis); conditions: amount of applied herbicide 320 g/ha
Method in brief: as §1

redroot pigweed [14] = experiment: Test Example 4: herbicidal effect by soil treatment (Table 19, symbol N); type: in vivo, redroot pigweed (Amaranthus retroflexus); conditions: amount of applied herbicide 320 g/ha
Method in brief: as §1

Japanese bulrush = experiment: Test Example 1: herbicidal activity, application before weed generation under submerged conditions (Table 16, symbol B); type: in vivo, Japanese bulrush (Schoenoplectus juncoides); conditions: amount of applied herbicide 320 g/ha
Method in brief: as §4

chickweed [15] = experiment: Test Example 5: herbicidal effect by foliage application, plastic box (Table 20, symbol P); type: in vivo, common chickweed (Stellaria media); conditions: amount of applied herbicide 320 g/ha; foliage application after 14-day growth; evaluated three weeks after application
Method in brief: as §3

barnyard grass [16] = experiment: Test Example 5: herbicidal effect by foliage application, plastic box (Table 20, symbol H); type: in vivo, barnyard grass (Echinochloa crus-galli); conditions: amount of applied herbicide 320 g/ha; foliage application after 14-day growth; evaluated three weeks after application
Method in brief: as §3

lambsquarters [17] = experiment: Test Example 4: herbicidal effect by soil treatment (Table 19, symbol O); type: in vivo, lambsquarters (Chenopodium album); conditions: amount of applied herbicide 320 g/ha
Method in brief: as §1

Chinese sprangletop = experiment: Test Example 3: herbicidal effect by foliage application, Wagner pot (Table 18, symbol D); type: in vivo, chinese sprangletop (Leptochloa chinensis); conditions: 320 g/ha
Method in brief: as §2

velvetleaf [18] = experiment: Test Example 4: herbicidal effect by soil treatment (Table 19, symbol M); type: in vivo, velvetleaf (Abutilon theophrasti); conditions: amount of applied herbicide 320 g/ha
Method in brief: as §1

persian speedwell [19] = experiment: Test Example 4: herbicidal effect by soil treatment (Table 19, symbol R); type: in vivo, Persian speedwell (Veronica persica); conditions: amount of applied herbicide 320 g/ha
Method in brief: as §1

Italian ryegrass [20] = experiment: Test Example 4: herbicidal effect by soil treatment (Table 19, symbol K); type: in vivo, Italian ryegrass (Lolium multiflorum); conditions: amount of applied herbicide 320 g/ha
Method in brief: as §1

rice flat sedge = experiment: Test Example 3: herbicidal effect by foliage application, Wagner pot (Table 18, symbol E); type: in vivo, rice flat sedge (Cyperus iria); conditions: 320 g/ha
Method in brief: as §2

oval-leafed pondweed = experiment: Test Example 1: herbicidal activity, application before weed generation under submerged conditions (Table 16, symbol C); type: in vivo, oval-leafed pondweed (Monochoria vaginalis); conditions: amount of applied herbicide 320 g/ha
Method in brief: as §4

green foxtail [21] = experiment: Test Example 5: herbicidal effect by foliage application, plastic box (Table 20, symbol G); type: in vivo, green foxtail (Setaria viridis); conditions: amount of applied herbicide 320 g/ha; foliage application after 14-day growth; evaluated three weeks after application
Method in brief: as §3

lambsquarters [22] = experiment: Test Example 5: herbicidal effect by foliage application, plastic box (Table 20, symbol O); type: in vivo, lambsquarters (Chenopodium album); conditions: amount of applied herbicide 320 g/ha; foliage application after 14-day growth; evaluated three weeks after application
Method in brief: as §3

redroot pigweed [23] = experiment: Test Example 5: herbicidal effect by foliage application, plastic box (Table 20, symbol N); type: in vivo, redroot pigweed (Amaranthus retroflexus); conditions: amount of applied herbicide 320 g/ha; foliage application after 14-day growth; evaluated three weeks after application
Method in brief: as §3

wild oat [24] = experiment: Test Example 4: herbicidal effect by soil treatment (Table 19, symbol I); type: in vivo, wild oat (Avena fatua); conditions: amount of applied herbicide 320 g/ha
Method in brief: as §1

wild oat [25] = experiment: Test Example 5: herbicidal effect by foliage application, plastic box (Table 20, symbol I); type: in vivo, wild oat (Avena fatua); conditions: amount of applied herbicide 320 g/ha; foliage application after 14-day growth; evaluated three weeks after application
Method in brief: as §3

SMILES	Herbicidal effect by soil treatment, J: blackgrass (blackgrass [1])	herbicidal effect on barnyard grass (H) (barnyard grass [2])	Herbicidal effect by foliage application, J: blackgrass (blackgrass [3])	Herbicidal effect by soil treatment, L: windgrass (windgrass [4])	Herbicidal effect by soil treatment, P: chickweed (chickweed [5])	Herbicidal effect by soil treatment, H: barnyard grass (barnyard grass [6])	Herbicidal effect by foliage application, L: windgrass (windgrass [7])	Herbicidal effect by soil treatment, F: southern crabgrass (southern crabgrass [8])	Herbicidal effect by foliage application, F: southern crabgrass (southern crabgrass [9])	Herbicidal effect by foliage application, M: velvetleaf (velvetleaf [10])	Herbicidal effect, A: late watergrass (late watergrass)	Herbicidal effect by foliage application, K: Italian ryegrass (Italian ryegrass [11])	Herbicidal effect by foliage application, R: persian speedwell (persian speedwell [12])	Herbicidal effect by soil treatment, G: green foxtail (green foxtail [13])	Herbicidal effect by soil treatment, N: redroot pigweed (redroot pigweed [14])	Herbicidal effect, B: Japanese bulrush (Japanese bulrush)	Herbicidal effect by foliage application, P: chickweed (chickweed [15])	Herbicidal effect by foliage application, H: barnyard grass (barnyard grass [16])	Herbicidal effect by soil treatment, O: lambsquarters (lambsquarters [17])	herbicidal effect on Chinese sprangletop (D) (Chinese sprangletop)	further results
COc1ccccc1-c1sc2c(C)cccc2c1-c1c(O)c(C)nn(C)c1=O [4-106]	0 (Herbicidal rate of 5% or less (almost no effect))	4 (Herbicidal rate of 70% or more and less than 90%)	4 (Herbicidal rate of 70% or more and less than 90%)	3 (Herbicidal rate of 40% or more and less than 70%)	1 (Herbicidal rate of 5% or more and less than 20%)	0 (Herbicidal rate of 5% or less (almost no effect))	5 (Herbicidal rate of 90% or more (almost completely withered))	3 (Herbicidal rate of 40% or more and less than 70%)	1 (Herbicidal rate of 5% or more and less than 20%)	3 (Herbicidal rate of 40% or more and less than 70%)	2 (Herbicidal rate of 20% or more and less than 40%)	4 (Herbicidal rate of 70% or more and less than 90%)	5 (Herbicidal rate of 90% or more (almost completely withered))	1 (Herbicidal rate of 5% or more and less than 20%)	4 (Herbicidal rate of 70% or more and less than 90%)	0 (Herbicidal rate of 5% or less (almost no effect))	5 (Herbicidal rate of 90% or more (almost completely withered))	1 (Herbicidal rate of 5% or more and less than 20%)	1 (Herbicidal rate of 5% or more and less than 20%)	0 (Herbicidal rate of 5% or less (almost no effect))	Herbicidal effect by soil treatment, M: velvetleaf (velvetleaf [18]): 0 (Herbicidal rate of 5% or less (almost no effect)); Herbicidal effect by soil treatment, R: persian speedwell (persian speedwell [19]): 1 (Herbicidal rate of 5% or more and less than 20%); Herbicidal effect by soil treatment, K: Italian ryegrass (Italian ryegrass [20]): 0 (Herbicidal rate of 5% or less (almost no effect)); herbicidal effect on rice flat sedge (E) (rice flat sedge): 5 (Herbicidal rate of 90% or more (almost completely withered)); Herbicidal effect, C: oval-leafed pondweed (oval-leafed pondweed): 0 (Herbicidal rate of 5% or less (almost no effect)); Herbicidal effect by foliage application, G: green foxtail (green foxtail [21]): 0 (Herbicidal rate of 5% or less (almost no effect)); Herbicidal effect by foliage application, O: lambsquarters (lambsquarters [22]): 3 (Herbicidal rate of 40% or more and less than 70%); Herbicidal effect by foliage application, N: redroot pigweed (redroot pigweed [23]): 4 (Herbicidal rate of 70% or more and less than 90%); Herbicidal effect by soil treatment, I: wild oat (wild oat [24]): 0 (Herbicidal rate of 5% or less (almost no effect)); Herbicidal effect by foliage application, I: wild oat (wild oat [25]): 2 (Herbicidal rate of 20% or more and less than 40%)
CSc1ccc(-c2sc3c(C)cccc3c2-c2c(O)c(C)nn(C)c2=O)cc1 [4-118]	0 (Herbicidal rate of 5% or less (almost no effect))	4 (Herbicidal rate of 70% or more and less than 90%)	5 (Herbicidal rate of 90% or more (almost completely withered))	0 (Herbicidal rate of 5% or less (almost no effect))	4 (Herbicidal rate of 70% or more and less than 90%)	0 (Herbicidal rate of 5% or less (almost no effect))	5 (Herbicidal rate of 90% or more (almost completely withered))	0 (Herbicidal rate of 5% or less (almost no effect))	3 (Herbicidal rate of 40% or more and less than 70%)	5 (Herbicidal rate of 90% or more (almost completely withered))	3 (Herbicidal rate of 40% or more and less than 70%)	5 (Herbicidal rate of 90% or more (almost completely withered))	5 (Herbicidal rate of 90% or more (almost completely withered))	0 (Herbicidal rate of 5% or less (almost no effect))	5 (Herbicidal rate of 90% or more (almost completely withered))	2 (Herbicidal rate of 20% or more and less than 40%)	5 (Herbicidal rate of 90% or more (almost completely withered))	3 (Herbicidal rate of 40% or more and less than 70%)	5 (Herbicidal rate of 90% or more (almost completely withered))	3 (Herbicidal rate of 40% or more and less than 70%)	Herbicidal effect by soil treatment, M: velvetleaf (velvetleaf [18]): 3 (Herbicidal rate of 40% or more and less than 70%); Herbicidal effect by soil treatment, R: persian speedwell (persian speedwell [19]): 4 (Herbicidal rate of 70% or more and less than 90%); Herbicidal effect by soil treatment, K: Italian ryegrass (Italian ryegrass [20]): 5 (Herbicidal rate of 90% or more (almost completely withered)); herbicidal effect on rice flat sedge (E) (rice flat sedge): 4 (Herbicidal rate of 70% or more and less than 90%); Herbicidal effect, C: oval-leafed pondweed (oval-leafed pondweed): 2 (Herbicidal rate of 20% or more and less than 40%); Herbicidal effect by foliage application, G: green foxtail (green foxtail [21]): 3 (Herbicidal rate of 40% or more and less than 70%); Herbicidal effect by foliage application, O: lambsquarters (lambsquarters [22]): 5 (Herbicidal rate of 90% or more (almost completely withered)); Herbicidal effect by foliage application, N: redroot pigweed (redroot pigweed [23]): 5 (Herbicidal rate of 90% or more (almost completely withered)); Herbicidal effect by soil treatment, I: wild oat (wild oat [24]): 0 (Herbicidal rate of 5% or less (almost no effect)); Herbicidal effect by foliage application, I: wild oat (wild oat [25]): 3 (Herbicidal rate of 40% or more and less than 70%)
